This note sets out measurements from patent publication US20140066303A1, “COMPOSITIONS AND METHODS FOR IMPROVING THE COMPATIBILITY OF WATER SOLUBLE HERBICIDE SALTS” (DOW AGROSCIENCES LLC, priority 2012, published 2014).

SMILES strings stand for the structures.

Type in all cases: physicochemical
Series [1] in a line: On-set pH of crystallization (OSPOC) of aqueous 2,4-D potassium solution, titration with sulfuric acid. To be noted: 3% AE w/w 2,4-D K in water; control, no SAC (0.0%); pH lowered with 0.2 N sulfuric acid. The text has this: Without intending to be bound by theory, the surface active compatibilizers described herein are believed to improve the compatibility of aqueous herbicide solutions comprised of at least one of a water soluble salt of an aryloxyalkanoic acid, a water soluble salt of a pyridyloxyalkanoic acid, a water soluble salt of an arylcarboxylic acid, a water soluble salt of a heteroarylcarboxylic acid and a water soluble salt of glyphosate, a suitable concentration of one or more inorganic cations, and a pH of less than about 6.5 by preventing or inhibiting the crystallization or precipitation of solids. The relative effectiveness of the surface active compatibilizers in preventing the formation of these solids can be estimated by measuring the on-set pH of crystallization (OSPOC) of the solids in a titration analysis procedure. The OSPOC of a particular composition can be measured, for example, by titrating a solution of an aryloxyalkanoic or a pyridyloxyalkanoic acid salt of an inorganic cation such as, for example, the potassium salt of 2,4-D with a strong acid such as, for example, sulphuric acid until solids or crystals begin forming at a particular pH value (the OSPOC). […]

Series [2] can be described thus: Critical Crystallization Concentration (CCC) of 2,4-D DMEA in spray mixtures with glyphosate potassium salt. Conditions: 2,4-D DMEA + Roundup PowerMax 1:1 AE; no SAC, control sample; 342 ppm water; 24 h ambient. The text has this:
(§1) Alternatively, the relative effectiveness of the surface active compatibilizers described herein at improving the compatibility of the aqueous herbicide solutions described herein can be determined by measuring the Critical Crystallization Concentration (CCC) of the aryloxyalkanoic acid salt, the pyridyloxyalkanoic acid salt, the arylcarboxylic acid salt, or the heteroarylcarboxylic acid salt of an inorganic cation such as, for example, the potassium salt of 2,4-D in a tank mix solution. The CCC of a particular composition can be measured by preparing saturated and over saturated solutions or mixtures of the composition and then measuring the concentration of the particular herbicidal carboxylic acid remaining in solution. […]
(§2) The CCC of 2,4-D compositions were measured using the following method. […] The CCC was determined by measuring the X-intercept of the extrapolated linear function of the crystal weight vs. 2,4-D wt % AE concentration. […] The amounts of 2,4-D and glyphosate salts were added to achieve desired AE concentrations of 2,4-D and glyphosate at 1:1 ratio, and the amount of water was calculated as a balance ingredient to achieve the final mixture volume of 100 ml. • 7. […]

The nature of series [3]: Critical Crystallization Concentration (CCC) of 2,4-D DMA in spray mixtures with glyphosate potassium salt. To be noted: 2,4-D DMA + Roundup PowerMax 1:1 AE; no SAC, control sample; 342 ppm hardness water; 24 h ambient.
Description: as §1, §2

`O=C([O-])COc1ccc(Cl)cc1Cl.[K+]` [2,4-D K, 2,4-D potassium]: in series [1], the “On-Set pH of Crystallization (OSPOC)” value was 6.16.
`CN(C)CCO.O=C(O)COc1ccc(Cl)cc1Cl` [2,4-D DMEA, 2,4-D dimethylethanol ammonium salt]: in series [2], the “2,4-D CCC” value stood at 1.04% AE.
Regarding `CNC.O=C(O)COc1ccc(Cl)cc1Cl` [2,4-D DMA, 2,4-D dimethyl ammonium salt], the “2,4-D CCC” value in series [3] was determined as 0.89% AE.
